One assay has as its target Mur20 (Streptomyces sp. NRRL 30471, UniProt F2WUD2). Description: HPLC, specific activity. Type of assay: biochemical. Conditions: amine donor; 1 mM 11a, 50 mM potassium phosphate pH 7.5, 30 °C.
Another assay addresses T1, LipM (Streptomyces sp. SANK 60405, UniProt D4QF26).
T1 sequence (D4QF26 1-233): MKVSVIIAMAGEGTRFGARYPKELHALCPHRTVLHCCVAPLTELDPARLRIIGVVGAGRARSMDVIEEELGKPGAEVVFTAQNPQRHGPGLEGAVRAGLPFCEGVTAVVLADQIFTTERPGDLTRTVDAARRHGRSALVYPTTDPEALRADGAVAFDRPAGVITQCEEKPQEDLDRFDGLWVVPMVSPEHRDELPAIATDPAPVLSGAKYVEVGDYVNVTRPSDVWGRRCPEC
Nature of the assay: HPLC of UDP-sugar, coupled with phosphorylase. The assay is classed as biochemical. As to conditions: generated in situ from 13b; UTP.

For `N[C@@H](Cc1ccc(O)cc1)C(=O)O` [L-Tyr], at Mur20, the “HPLC, specific activity” value was “the specific activity for Mur20 was highest using L-Tyr as an amine donor”.

On to `NC[C@H]1O[C@H](OP(=O)(O)O)C[C@@H]1O` [5-amino-2,5-dideoxy-α-D-ribose-1-phosphate], for which, at LipM, the “HPLC of UDP-sugar, coupled with phosphorylase” value is reported as “either enzyme was substituted with the respective orthologous proteins LipP or LipM”.

The record behind these values is paper PMC6291243 (The Journal of organic chemistry, 2018).
